Laboratory results as given in patent publication US9334267B2, “RAF inhibitor compounds” (Deciphera Pharmaceuticals, LLC, priority 2012, dated 2016).

Columns and labels:
[1] = biological target: T1, human B-Raf V600E (Homo sapiens, UniProt P15056, V600E); experiment: Enzymatic assay of B-Raf V600E kinase activity (Raf/MEK1 ATPase, coupled PK/LDH, A340); assay type: biochemical; details: read-out: Enzyme IC50, nM B-Raf V600E
T1 construct: B-RafV600E (residues 433-726 containing V600E mutation) containing an N-terminal purification tag is expressed and purified; made in house
T1 sequence (P15056 433-726 V600E): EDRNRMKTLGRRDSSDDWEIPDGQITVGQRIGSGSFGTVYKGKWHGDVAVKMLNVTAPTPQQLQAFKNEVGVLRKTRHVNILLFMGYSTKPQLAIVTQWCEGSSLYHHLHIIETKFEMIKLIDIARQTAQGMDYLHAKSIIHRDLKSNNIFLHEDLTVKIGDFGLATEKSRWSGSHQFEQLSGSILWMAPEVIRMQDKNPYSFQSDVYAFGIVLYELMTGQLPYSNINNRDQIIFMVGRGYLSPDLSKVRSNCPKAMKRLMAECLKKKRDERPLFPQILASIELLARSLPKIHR
Protocol: Test compounds are evaluated for their inhibitory activities against one or more of human wild type B-Raf, human wild type C-Raf, human B-Raf V600E, human B-Raf V600E+T529I or human B-Raf V600E+G468A. T529I is a threonine to isoleucine B-Raf gatekeeper mutation and G468A is a B-Raf secondary mutation at G1403C in exon 11. The enzymatic assays of B-Raf, C-Raf and B-Raf mutations evaluate a property of Raf and MEK1 complex, which in the presence of ATP, catalyzes an enhanced ATP hydrolysis (Rominger, et al, Arch. Biochem. Biophys. 2007, 464: 130-137; US Patent Publication No. 2006/0211073). The ADP formed is monitored by the well-known coupled PK/LDH (pyruvate kinase/lactate dehydrogenase) system in the form of NADH oxidation, which can be monitored and detected spectrophotometrically by absorbance at 340 nm (A340; for principal of the method see Schindler et al, Science, 2000, 289: 1938-1942). Raf activated MEK1 ATPase activity is a property shared by all forms of Raf proteins.
B-RafV600E (residues 433-726 containing V600E mutation) containing an N-terminal purification tag is expressed and purified essentially as described previously (Wan et al, Cell, 2004, 116, 855-867).
Test compounds are evaluated for their inhibitory activities against one or more of wild type B-Raf, wild type C-Raf, B-Raf V600E, B-Raf V600E+T529I and B-Raf V600E+G468A. T529I is a B-Raf gatekeeper mutation and G468A is a B-Raf secondary mutation. The enzymatic assays of B-Raf, C-Raf and B-Raf mutations evaluate a property of Raf and MEK1 complex, which in the presence of ATP, catalyzes an enhanced ATP hydrolysis (Rominger, et al, Arch. Biochem. Biophys. 2007, 464: 130-137). The ADP formed is monitored by the well-known coupled PK/LDH (pyruvate kinase/lactate dehydrogenase) system in the form of NADH oxidation, which can be monitored and detected by absorbance at 340 nm (A340; for principal of the method see Schindler et al, Science, 2000, 289: 1938-1942). Raf activated MEK1 ATPase activity is a property shared by all forms of Raf proteins. In the B-Raf wild type enzymatic assay, the reaction mixture contains 1.2 nM B-Raf, 30 nM MEK1, 1000 uM ATP, 3.5 units (per 100 ul) of PK, 5 units (per 100 ul) of LDH, 1 mM phosphoenol pyruvate (PEP), and 280 uM of NADH. In the C-Raf assay, the reaction mixture contains 0.6 nM C-Raf, 26 nM MEK1, 2000 uM ATP, and the same amount of PK, LDH, PEP and NADH as above. In the B-Raf V600E assay, the reaction mixture contains […] B-Raf V600E, 26 nM MEK1, 200 uM ATP and the same amount of PK, LDH, PEP and NADH as above. In the B-RafV600E+T529I assay, the reaction mixture contains 6.2 nM B-Raf V600E+T529I, 30 nM MEK1, 200 uM ATP and the same amount of PK, LDH, PEP and NADH as above. In the B-Raf V600E+G468A assay, the reaction mixture contains 3.5 nM B-Raf, 30 nM MEK1, 200 uM ATP and the same amount of PK, LDH, PEP and NADH as above. All assays are started by mixing the above mixture with test compound and monitoring at A340 continuously for approximately 5 hr. […] In the aforementioned assays, the enzyme constructs can be screened prior to or after cleavage of the N-terminal purification tag.

[2] = tested on: A375 cells; experiment: A375 cell proliferation assay (CellTiter-Blue/resazurin); assay type: cell-based; details: Homo sapiens, A-375, V600E mutation, read-out: Cell Proliferation Inhibition IC50, nM A375
Protocol: (§1) A375 cells (catalog #CRL-1619) are obtained from the American Type Culture Collection (ATCC, Manassas, Va.). Briefly, cells are grown in DMEM High Glucose supplemented with 10% characterized fetal bovine serum (Invitrogen, Carlsbad, Calif.) and 1% Penicillin/Streptomycin/L-Glutamine at 37 degrees Celsius, 5% CO2, and 95% humidity. Cells are allowed to expand until reaching 70-95% confluency at which point they are subcultured or harvested for assay use. A serial dilution of test compound is dispensed into a 384-well black clear bottom plate in triplicate. Six hundred twenty-five cells are added per well in 50 μL complete growth medium in the 384-well plate. Plates are incubated for 67 hours at 37 degrees Celsius, 5% CO2, and 95% humidity. At the end of the incubation period, 10 μL of a 440 μM solution of resazurin (Sigma, St. Louis, Mo.) in PBS is added to each well of the plate and plates are incubated for an additional 5 hours at 37 degrees Celsius, 5% CO2, and 95% humidity. Plates are read on a Synergy2 reader (Biotek, Winooski, Vt.) using an excitation of 540 nm and an emission of 600 nm. Data is analyzed using Prism software (Graphpad, San Diego, Calif.) to calculate IC50 values.
(§2) The A375, HT-29, and Colo-205 cells (ATCC) harbor a V600E mutation.

[3] = tested on: Colo205 cells; experiment: Colo-205 cell proliferation assay (resazurin); assay type: cell-based; details: Homo sapiens; Colo-205 cells, V600E mutation; read-out: Cell Proliferation Inhibition IC50, nM Colo-205
Protocol: as §1, with “Colo205 cells” for “A375 cells”, “(catalog #HB-8307)” for “(catalog #CRL-1619)”, “in RPMI 1640” for “in DMEM High Glucose”, “Carlsbad, Calif.), 1 mM sodium pyruvate,” for “Carlsbad, Calif.)”, “reaching 30-60%” for “reaching 70-95%”, “triplicate. One thousand two-hundred fifty” for “triplicate. Six hundred twenty-five”
as §2

With CNc1ncc2cc(-c3cc(NC(=O)NCCC(C)(C)C)c(F)cc3Br)c(C)nc2n1 [Example 32, 1-(4-Bromo-2-fluoro-5-(7-methyl-2-(methylamino)pyrido[2,3-d]pyrimidin-6-yl)phenyl)-3-(3,3-dimethylbutyl)urea] the IC50 [1] was < 150 nM, the IC50 [2] was < 100 nM and the IC50 [3] was < 100 nM.

For CC(=O)Nc1ncc2cc(-c3cc(NC(=O)NCCC(C)(C)C)c(F)cc3C)c(C)nc2n1 [Example 33, N-(6-(5-(3-(3,3-Dimethylbutyl)ureido)-4-fluoro-2-methylphenyl)-7-methylpyrido[2,3-d]pyrimidin-2-yl)acetamide], the IC50 [1] was < 150 nM, the IC50 [2] was < 100 nM and the IC50 [3] was < 100 nM.

In the case of CNc1ncc2cc(-c3cc(NC(=O)NCCC(C)(C)F)c(F)cc3C)cnc2n1 [Example 34, 1-(3-Fluoro-3-methyl-butyl)-3-[2-fluoro-4-methyl-5-(2-methylaminopyrido[2,3-d]pyrimidin-6-yl)phenyl]urea], the IC50 [1] was < 150 nM, the IC50 [2] was 100 to 1000 nM and the IC50 [3] was 100 to 1000 nM.

For CNc1ncc2cc(-c3cc(NC(=O)NCCC(C)(C)C)c(F)cc3C)cnc2n1 [Example 35, 1-(3,3-Dimethylbutyl)-3-[2-fluoro-4-methyl-5-(2-methylaminopyrido[2,3-d]pyrimidin-6-yl)phenyl]urea], the IC50 [1] was < 150 nM, the IC50 [2] was < 100 nM and the IC50 [3] was < 100 nM.

In the case of CNc1ncc2cc(-c3cc(NC(=O)NCCC(C)(C)C)c(F)cc3F)cnc2n1 [Example 36, 1-(2,4-Difluoro-5-(2-(methylamino)pyrido[2,3-d]pyrimidin-6-yl)phenyl)-3-(3,3-dimethylbutyl)urea methanesulfonate], the IC50 [1] was < 150 nM, the IC50 [2] was 1000 to 10000 nM and the IC50 [3] was 1000 to 10000 nM.
